Patent US8993527B2, “Methods, compositions, and formulations for preventing or reducing adverse effects in a patient” (Pericor Therapeutics, Inc., priority 2005, dated 2015)
Where two headings read alike, the source gives them in different places.

Columns and labels:
[1] = test system: ischemic myocardium; assay type: in vivo, dog; details: vs saline-treated animals, 5 and 60 minutes of ischemia
From the text: Thirteen mongrel dogs were anesthetized with phenobarbital. […] C.V. Dis. 20; 55 (1977).

[2] = test system: mast cells; test: AICA riboside: mast cell leukotriene C4 release; assay type: cell-based, mouse; details: 100 μM pretreatment for six days
[3] = test system: ischemic rat hearts; test: Rat heart ischemia model: tissue adenosine levels; assay type: in vivo; details: intraperitoneal; hearts excised after 60 minutes, incubated 60 minutes at 37° C.
Description: Male rats were injected intraperitonealy with either the AICA riboside analog, AICA riboside or saline, as a control. After 60 minutes, the hearts were excised and incubated at 37° C. for a further 60 minutes. Tissue extracts were prepared and analyzed for adenosine by high performance liquid chromatography (HPLC).

[4] = test system: adenylosuccinase deficiency (autism); test: Therapeutic trial of oral AICA riboside in patients with adenylosuccinase deficiency (autism); assay type: in vivo, human
From the text: Following authorization, therapeutic trials with AICA riboside were started in two patients with adenylosuccinase deficiency (autism). […] On Day 55, both patients were briefly readmitted for clinical, biochemical and psychiatric evaluation. […] Treatment was maintained until Day 71, and arrested at that date. […] A correct assessment of the renal loss of the nucleoside could not be obtained. […] The following parameters were found normal before and during the trial treatment with AICA riboside: red blood cell count, white blood cell count, platelet and reticulocyte counts; leukocyte differentiations; hematocrit, ionogram, Ca, phosphate, urea, creatinine, uric acid, cholesterol, lipids, SGOT, SGPT, CPK, glucose, lactate and ammonia.

[5] = molecular target: T1, calf intestinal musosa adenosine deaminase (Bos taurus, UniProt P56658); test: Adenosine deaminase activity; assay type: biochemical; details: 80 μM adenosine, 10 minutes at 37° C.
T1 construct: 0.002 units of calf intestinal musosa adenosine deaminase; from tissue; host or cells: calf intestinal mucosa
T1 sequence (P56658 whole entry): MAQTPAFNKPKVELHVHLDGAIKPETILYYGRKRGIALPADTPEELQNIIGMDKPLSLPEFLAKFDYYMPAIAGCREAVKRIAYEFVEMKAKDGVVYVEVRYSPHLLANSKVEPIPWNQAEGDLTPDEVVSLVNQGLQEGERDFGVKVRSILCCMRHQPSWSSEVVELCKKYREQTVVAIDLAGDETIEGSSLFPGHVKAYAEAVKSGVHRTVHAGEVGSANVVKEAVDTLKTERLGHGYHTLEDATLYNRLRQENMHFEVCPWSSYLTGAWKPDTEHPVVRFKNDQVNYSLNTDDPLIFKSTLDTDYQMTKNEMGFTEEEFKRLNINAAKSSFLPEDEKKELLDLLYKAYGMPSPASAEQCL
Description: Different concentrations of the test compounds were incubated in the assay mixture for 10 minutes at 37° C. The reaction was monitored continuously for oxidation of NADH from the change in absorbance at 340 nm.

[6] = test system: patients undergoing CABG surgery; assay type: in vivo
Description: All patients from all clinical trials were included: a total of 4043 patients undergoing CABG surgery, evaluable for efficacy, and randomized to receive either placebo (n=2031) or acadesine (0.1 mg-kg^−1-min^−1; n=2012) by intravenous infusion for 7 continuous hours and via the cardioplegia solution.
Individual patient data were collected prospectively using standardized forms and methods and double-data entry. A general parametric approach and analysis-by-patient meta-analysis were used, including both fixed effects and random effects models. Inclusion and exclusion criteria, general methodology, and outcome assessment techniques were similar for all trials.
Meta-analysis included all patients undergoing CABG surgery in the United States, Canada, and Europe who had received acadesine at a dose of 0.1 mg-kg^1min^1. No patients satisfying these criteria were excluded. All 5 studies were randomized, placebo controlled, double blinded, and performed with approval from the 81 participating McSPI institutions and with patient informed consent. Inclusion and exclusion criteria, general methods, and outcome assessment techniques were similar for all trials; with several exceptions (Table 1). […] For all patients, blinded study drug (acadesine or placebo) was administered intravenously, starting approximately 15 minutes before induction of anesthesia and continuing for a total of 7 hours to include the intraoperative (prebypass and postbypass) and immunediate postoperative (into the intensive care unit) periods.
Prior to surgery, investigators ascertained cardiac history and recorded cardiac catheterization information. The use of agents potentially affecting endogenous adenosine concentration (which could complicate the analysis of efficacy) was restricted, including dipyridamole, theophylline, adenosine, and pentoxifylline. All chronic cardiovascular medications, including nitrates, β-blockers, and calcium channel blockers, were continued until the time of surgery. During surgery, but prior to bypass, the usual monitors wore applied, anesthetic techniques were standardized, and hemodynamic variables (blood pressure, heart rate) were to be maintained within specific boundaries for trials 1013, 1016, and 1023; for trials […], guidelines for anesthetic use and hemodynamic control were recommended. For all studies, prophylactic use of cardiovascular agents having potential anti-ischemic properties (nitrates, calcium channel Mockers) was specifically excluded to avoid confounding data interpretation. During cardiopulmonary bypass, neither the surgical technique nor bypass procedures (including cardioplegia administration) were controlled for the phase 3 trials, and bypass typically was conducted using a membrane oxygenator and arterial filter with hemodilution and moderate systemic hypothermia. Following bypass, the use of inotropic and vasodilating agents (excluding the prophylactic use of anti-ischemic medications) and treatment of clinically detected ischemia were not controlled; all medications administered were recorded.
For all studies, the primary outcome, MI, and other secondary outcomes were ascertained and validated by IREF Coordinating Center investigators who were blinded to patient identity and group assignment. Secondary outcomes included cardiac death, stroke, life-threatening dysrhythmia, and severe heart failure (Table 1). For MI, repeated electrocardiograms (ECGs) were coded centrally by core investigators using Minnesota Code criteria. Creatine kinase-MB (CK-M13) concentrations were sampled approximately 18 times during the first 4 postoperative days and, for phase 3 studies, were analyzed centrally using an immunoenzymetric assay (Hybritech Tandem-E CK-MB II, SmithKline Beecham, Van Nuys, Calif.). The presence of infarction at autopsy was based on pathologic data from the respective institution and confirmed centrally by the Endpoint Committee.

[7] = death following myocardial infarction, acadesine vs placebo (n = 98)
[8] = patients with myocardial infarction, Acadesine (n = 71)
[9] = patients with myocardial infarction, Acadesine (n = 71), number of patients

NC(=O)c1ncn([C@@H]2O[C@H](CO)[C@@H](O)[C@H]2O)c1N [1 (1-110), 5-amino-1-β-D-ribofuranosyl-imidazole-4-carboxamide]
regional myocardial blood flow to the ischemic myocardium [1]: significantly greater | Leukotriene C4 release reduced by [2]: 75% | Tissue Adenosine Levels (% Increase vs. Saline) [3]: 30% | side effects ([4]; oral 5 mg/kg/day up to 2×10 mg/kg/day): No clinical or biochemical side effects were observed | AICA riboside in plasma and CSF ([4]; oral, all dosages used): could not be detected | autistic features after two months of continuous administration ([4]; younger patient, older patient without modification): clear-cut improvement | IC50 [5]: > 5 mM | decrease of the incidence of perioperative myocardial infarction ([6]; 0.1 mg/kg/min for 7 hours vs placebo): 27% | cardiac death following MI through postoperative day 4 ([6]; acadesine group (1 death/71 MIs), placebo 13.3%): 1.4% | incidence of CVA ([6]; acadesine group (32/2012), placebo 2.3%): 1.6% | fewer patients with an adverse outcome ([6]; acadesine group vs placebo, combined outcomes): 41 | incidence of infarction ([6]; acadesine group, placebo 4.9%): 3.6% | cardiac deaths through postoperative day 4, number ([6]; acadesine group, placebo 26): 13 | Cardiac death at 28 days, patients ([6]; acadesine group, placebo 34): 20 | patients with myocardial infarction, number ([6]; acadesine group, placebo 98): 71 | autopsy-defined MI ([6]; acadesine patients, placebo 16/19): 2/11 | decrease of cardiac death following MI through postoperative day 4 ([6]; acadesine vs placebo): 89% | decrease of the incidence of cardiac death through postoperative day 4 ([6]; acadesine vs placebo): 50% | decrease of the incidence of combined outcome (MI, stroke, or cardiac death) ([6]; acadesine vs placebo): 26% | noncardiac death ([6]; acadesine vs placebo): no effect | reduction of the use of ventricular-assistance devices for severe postoperative heart failure ([6]; acadesine vs placebo): approximately one third | post-MI deaths ([6]; acadesine-treated patients, placebo 21/98): 4/71 | cardiac death in the first 4 days in patients without MI or not evaluable for MI ([6]; acadesine-treated, placebo 0.7%): 0.6% | Cardiac death by postoperative day 4, Reduction [6, 7]: 89% | Cardiac death by postoperative day 28, Reduction [6, 7]: 79% | Death by postoperative day 4, Reduction [6, 7]: 79% | Death by postoperative day 28, Reduction [6, 7]: 74% | cardiac failure, immediately life-threatening or prolonging hospitalization ([6]; human, in vivo, 7 h): 2.1% | incidence of serious adverse events ([6]; human, in vivo, 7 h): 9.1% | use of an intraaortic balloon pump ([6]; in vivo): 2.4% | Cardiac death by postoperative day 4, (%) [6, 8]: 1 (1) % | Cardiac death by postoperative day 28, (%) [6, 8]: 4% | Death by postoperative day 4, (%) [6, 8]: 3% | Death by postoperative day 28, (%) [6, 8]: 6% | Cardiac death by postoperative day 4, No. [6, 9]: 1 (1) | Cardiac death by postoperative day 28, No. [6, 9]: 3 | Death by postoperative day 4, No. [6, 9]: 2 | Death by postoperative day 28, No. [6, 9]: 4 | reduction in post-MI death ([6]; secondary analysis, acadesine vs placebo): 74% | effect size for MI ([6]; trial 1016 (n=414)): 73% | rate of stroke ([6]; trial 1016, placebo 4.2%): 0.5% | combined adverse cardiovascular outcome (MI, CVA or cardiac death) ([6]; trial 1016, placebo […]): 1.9% | infarction rate (Q wave and CK-MB or autopsy) ([6]; trial 1016, placebo […]): 1.5% | effect size for MI ([6]; trial 1017 (n=821)): 23% | effect size for MI ([6]; trial 1024 (n=2698)): 22%
